Results reported in PMC11263391, “Molecular insights into degron recognition by CRL5^ASB7 ubiquitin ligase” (Nature Communications, 2024).
Read-outs that look alike come from different tables or passages of the source. Residues, ends and D or L forms follow the SMILES beside them.

Target: T1, ASB7-Elongin B/C (Homo sapiens, UniProt Q9H672)
T1 construct: The human ASB7 (residues 11–318) was amplified via PCR; His8-SUMO (pET28-MKH8SUMO) (N, cleaved yes); made in house; host or cells: Escherichia coli BL21 (DE3)
T1 sequence (Q9H672 11-318): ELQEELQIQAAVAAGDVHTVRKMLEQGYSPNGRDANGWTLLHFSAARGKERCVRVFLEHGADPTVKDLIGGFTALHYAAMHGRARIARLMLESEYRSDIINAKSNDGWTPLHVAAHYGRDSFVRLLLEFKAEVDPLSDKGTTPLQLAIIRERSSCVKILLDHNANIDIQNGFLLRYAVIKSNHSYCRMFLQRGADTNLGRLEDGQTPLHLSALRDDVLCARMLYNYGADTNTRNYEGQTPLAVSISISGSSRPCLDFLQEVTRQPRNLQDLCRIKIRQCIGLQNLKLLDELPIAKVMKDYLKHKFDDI
T1 sequence (Q15370 1-104 partner limits assumed): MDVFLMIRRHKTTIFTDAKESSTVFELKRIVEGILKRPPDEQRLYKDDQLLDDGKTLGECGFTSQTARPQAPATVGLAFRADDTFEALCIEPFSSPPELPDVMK
T1 sequence (Q15369 17-112 partner limits assumed): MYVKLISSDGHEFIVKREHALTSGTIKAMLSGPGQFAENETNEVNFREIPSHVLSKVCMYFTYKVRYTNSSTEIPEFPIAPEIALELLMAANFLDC
Assay: ITC of degron peptides with wild-type ASB7-Elongin B/C
Type: binding
Conditions: for ASB7 binding ability of substituted peptide, in words: wild-type ASB7, compared with native LZTS1-degron; for -T∆S / ∆G / ∆H: wild-type ASB7-Elongin B/C; for ∆H: mean ± SD of three repeats
Description: The human ASB7 (residues 11-318) was amplified via PCR from a human cDNA library and seamlessly cloned into the pET28-MKH8SUMO vector (Addgene plasmid #79526). […] ITC assays were performed using a MicroCal PEAQ-ITC instrument (Malvern Panalytical) at 16 °C. […] All protein and peptide stocks were prepared in an ITC buffer (20 mM Tris-HCl pH 7.5, and 150 mM NaCl) and subsequently diluted to the desired concentrations (39-156 μM for ASB7 protein and 0.8-4 mM for the peptides, respectively). In each experiment, 1.5 μL of peptide was titrated into the ASB7 complex solution with 15 injections. The injections were spaced at 90 seconds with a reference power of 15 μcal/s. The ITC data were processed using MicroCal PEAQ-ITC Analysis software.

[1] = ITC, MicroCal PEAQ-ITC, 16 °C, 20 mM Tris-HCl pH 7.5, 150 mM NaCl, peptide (0.8–4 mM) titrated into wild-type ASB7-Elongin B/C (39–156 μM), 15 injections, mean ± SD of three independent repeats, read-out: KD
[2] = ITC, 16 °C, 20 mM Tris-HCl pH 7.5, 150 mM NaCl

Row | Compound | Kd [1] [µM] | ASB7 binding ability of substituted peptide, in words (ITC) | other results
1 | CSCC[C@H](NC(=O)[C@H](CC(C)C)NC(=O)[C@H](CO)NC(=O)[C@H](CCC(=O)O)NC(=O)[C@H](CC(C)C)NC(=O)[C@@H](N)CCC(=O)O)C(=O)N[C@@H](CCCCN)C(=O)N[C@@H](CCC(=O)O)C(=O)N[C@@H](CCC(N)=O)C(=O)O (H-ELESLMKEQ-OH; N-terminus and C-terminus assumed) | > 30 |  | 
2 | CSCC[C@H](NC(=O)[C@H](CC(C)C)NC(=O)[C@H](CO)NC(=O)[C@H](CCC(=O)O)NC(=O)[C@H](CC(C)C)NC(=O)[C@@H](N)CCC(=O)O)C(=O)N[C@@H](CCCCN)C(=O)N[C@@H](CCC(=O)O)C(=O)N[C@@H](CCC(N)=O)C(=O)N[C@@H](CC(=O)O)C(=O)N[C@@H](CC(C)C)C(=O)N[C@@H](CC(C)C)C(=O)N[C@@H](CCC(=O)O)C(=O)O (H-ELESLMKEQDLLE-OH; N-terminus and C-terminus assumed) | > 30 |  | 
3 | CSCC[C@H](NC(=O)[C@H](CC(C)C)NC(=O)[C@H](CO)NC(=O)[C@H](CCC(=O)O)NC(=O)[C@H](CC(C)C)NC(=O)[C@@H](N)CCC(=O)O)C(=O)O [ELESLM] (H-ELESLM-OH) |  |  | Kd: > 30 µM
4 | CSCC[C@H](NC(=O)[C@H](CC(C)C)NC(=O)[C@H](CO)NC(=O)[C@H](CCC(=O)O)NC(=O)[C@H](CC(C)C)NC(=O)[C@H](CCC(=O)O)NC(=O)[C@H](CCC(N)=O)NC(=O)[C@@H](N)CCCNC(=N)N)C(=O)N[C@@H](CCCCN)C(=O)N[C@@H](CCC(=O)O)C(=O)N[C@@H](CCC(N)=O)C(=O)N[C@@H](CC(=O)O)C(=O)N[C@@H](CC(C)C)C(=O)N[C@@H](CCCNC(=N)N)C(=O)N[C@@H](CCC(=O)O)C(=O)N[C@H](C(=O)N[C@@H](CCCCN)C(=O)N[C@@H](CC(C)C)C(=O)N[C@@H](CCCNC(=N)N)C(=O)N[C@@H](CO)C(=O)N[C@@H](Cc1ccc(O)cc1)C(=O)N[C@@H](CCC(=O)O)C(=O)N[C@@H](CCCNC(=N)N)C(=O)O)[C@@H](C)O [L12R] (H-RQELESLMKEQDLRETKLRSYER-OH; N-terminus and C-terminus assumed) | > 30 | almost complete loss | 
5 | CSCC[C@H](NC(=O)[C@H](CC(C)C)NC(=O)[C@H](CO)NC(=O)[C@H](CCC(=O)O)NC(=O)[C@H](CC(C)C)NC(=O)[C@H](CCC(=O)O)NC(=O)[C@H](CCC(N)=O)NC(=O)[C@@H](N)CCCNC(=N)N)C(=O)N[C@@H](CCCCN)C(=O)N[C@@H](CCC(=O)O)C(=O)N[C@@H](CCC(N)=O)C(=O)N[C@@H](CC(=O)O)C(=O)N[C@@H](CC(C)C)C(=O)N[C@@H](CC(C)C)C(=O)N[C@@H](CCC(=O)O)C(=O)N[C@H](C(=O)N[C@@H](CCCCN)C(=O)N[C@@H](CCCNC(=N)N)C(=O)N[C@@H](CCCNC(=N)N)C(=O)N[C@@H](CO)C(=O)N[C@@H](Cc1ccc(O)cc1)C(=O)N[C@@H](CCC(=O)O)C(=O)N[C@@H](CCCNC(=N)N)C(=O)O)[C@@H](C)O [L16R] (H-RQELESLMKEQDLLETKRRSYER-OH; N-terminus and C-terminus assumed) | > 30 | almost complete loss | 
6 | CSCC[C@H](NC(=O)[C@H](CC(C)C)NC(=O)[C@H](CO)NC(=O)[C@H](CCC(=O)O)NC(=O)[C@H](CC(C)C)NC(=O)[C@H](CCC(=O)O)NC(=O)[C@H](CCC(N)=O)NC(=O)[C@@H](N)CCCNC(=N)N)C(=O)N[C@@H](CCCCN)C(=O)N[C@@H](CCC(=O)O)C(=O)N[C@@H](CCC(N)=O)C(=O)N[C@@H](CC(=O)O)C(=O)N[C@@H](CC(C)C)C(=O)N[C@@H](CC(C)C)C(=O)N[C@@H](CCC(=O)O)C(=O)N[C@H](C(=O)N[C@@H](CCCCN)C(=O)N[C@@H](CC(C)C)C(=O)N[C@@H](CCCNC(=N)N)C(=O)N[C@@H](CO)C(=O)N[C@@H](CCCNC(=N)N)C(=O)N[C@@H](CCC(=O)O)C(=O)N[C@@H](CCCNC(=N)N)C(=O)O)[C@@H](C)O [Y19R] (H-RQELESLMKEQDLLETKLRSRER-OH) | 0.7 ± 0.05 |  | 
7 | EIGELKAVMEGIKMEHQLELGN [CLIP2-degron, synthetic degron peptide derived from CLIP2] |  |  | -T∆S [2]: 2.57 kcal/mol; ∆G [2]: -8.23 kcal/mol; ∆H [2]: -10.8 ± 0.25 kcal/mol

The next lines start with results.

Row | Kd [1] [µM] | ASB7 binding ability of substituted peptide, in words (ITC) | Compound | other results
8 | 0.7 ± 0.31 |  | CSCC[C@H](NC(=O)[C@H](CC(C)C)NC(=O)[C@H](CO)NC(=O)[C@H](CCC(=O)O)NC(=O)[C@H](CC(C)C)NC(=O)[C@@H](N)CCC(=O)O)C(=O)N[C@@H](CCCCN)C(=O)N[C@@H](CCC(=O)O)C(=O)N[C@@H](CCC(N)=O)C(=O)N[C@@H](CC(=O)O)C(=O)N[C@@H](CC(C)C)C(=O)N[C@@H](CC(C)C)C(=O)N[C@@H](CCC(=O)O)C(=O)N[C@H](C(=O)N[C@@H](CCCCN)C(=O)N[C@@H](CC(C)C)C(=O)N[C@@H](CCCNC(=N)N)C(=O)N[C@@H](CO)C(=O)N[C@@H](Cc1ccc(O)cc1)C(=O)N[C@@H](CCC(=O)O)C(=O)N[C@@H](CCCNC(=N)N)C(=O)O)[C@@H](C)O (H-ELESLMKEQDLLETKLRSYER-OH) | 
9 | > 30 | almost complete loss | CSCC[C@H](NC(=O)[C@H](CC(C)C)NC(=O)[C@H](CO)NC(=O)[C@H](CCC(=O)O)NC(=O)[C@H](CC(C)C)NC(=O)[C@H](CCC(=O)O)NC(=O)[C@H](CCC(N)=O)NC(=O)[C@@H](N)CCCNC(=N)N)C(=O)N[C@@H](CCCCN)C(=O)N[C@@H](CCCNC(=N)N)C(=O)N[C@@H](CCC(N)=O)C(=O)N[C@@H](CC(=O)O)C(=O)N[C@@H](CC(C)C)C(=O)N[C@@H](CC(C)C)C(=O)N[C@@H](CCC(=O)O)C(=O)N[C@H](C(=O)N[C@@H](CCCCN)C(=O)N[C@@H](CC(C)C)C(=O)N[C@@H](CCCNC(=N)N)C(=O)N[C@@H](CO)C(=O)N[C@@H](Cc1ccc(O)cc1)C(=O)N[C@@H](CCC(=O)O)C(=O)N[C@@H](CCCNC(=N)N)C(=O)O)[C@@H](C)O [E8R] (H-RQELESLMKRQDLLETKLRSYER-OH; N-terminus and C-terminus assumed) | 
10 | > 30 | almost complete loss | CSCC[C@H](NC(=O)[C@H](CCCNC(=N)N)NC(=O)[C@H](CO)NC(=O)[C@H](CCC(=O)O)NC(=O)[C@H](CC(C)C)NC(=O)[C@H](CCC(=O)O)NC(=O)[C@H](CCC(N)=O)NC(=O)[C@@H](N)CCCNC(=N)N)C(=O)N[C@@H](CCCCN)C(=O)N[C@@H](CCC(=O)O)C(=O)N[C@@H](CCC(N)=O)C(=O)N[C@@H](CC(=O)O)C(=O)N[C@@H](CC(C)C)C(=O)N[C@@H](CC(C)C)C(=O)N[C@@H](CCC(=O)O)C(=O)N[C@H](C(=O)N[C@@H](CCCCN)C(=O)N[C@@H](CC(C)C)C(=O)N[C@@H](CCCNC(=N)N)C(=O)N[C@@H](CO)C(=O)N[C@@H](Cc1ccc(O)cc1)C(=O)N[C@@H](CCC(=O)O)C(=O)N[C@@H](CCCNC(=N)N)C(=O)O)[C@@H](C)O [L5R] (H-RQELESRMKEQDLLETKLRSYER-OH; N-terminus and C-terminus assumed) | 
11 | 3.8 |  | ELEKAKQECQDLKGKLEKCCRH [CEP152-degron, synthetic degron peptide derived from CEP152] | -T∆S [2]: -4.79 kcal/mol; ∆G [2]: -6.59 kcal/mol; ∆H [2]: -1.8 ± 0.09 kcal/mol
